We go through 2 compounds from patent publication US20070282004A1, “Use of a Cyclopentenone Prostaglandin for Delaying for the Onset and/or Preventing the Continuation of Labour” (Imperial College Innovations Limited, priority 2003, published 2007).

For assay [1], the target named is T1, NF-κB (Homo sapiens, UniProt P19838+Q04206).
T1 construct: nuclear protein extracts from myometrial cells; endogenous in cells; host or cells: primary human myometrial cells (term, passage 1-4)
Kind of assay: EMSA of NF-κB DNA binding in nuclear extracts of treated amnion cells. The format is cell-based. Particulars: L− and L+ amnion cells, treated 2 h, then IL-1β 15 min. On the procedure: (§1) Placentae were obtained from patients at term either at elective Caesarean section prior to labour (L−) or following spontaneous labour onset and vaginal delivery (L+). Amnion cells were prepared as described in Bennett et al., (1989). Briefly, the amnion was separated from the placenta, washed 3× in PBS, cut into strips, and incubated in 0.5 mM EDTA in PBS for 15 min. The strips were washed in PBS 2× and digested with 2.5 mg/ml dispase in serum-free DMEM for 35 min at 37° C. The amnion was then shaken vigorously in DMEM, 10% FCS to dissociate the cells, the remaining strips discarded, and the cell suspension pelleted at 175 g for 10 min and cultured in DMEM, 10% FCS (Sigma), 1% L-glutamine, 1% penicillin-streptomycin.
(§2) Nuclear and cytosolic protein extracts were obtained from cultured amnion cells as described by Schreiber et al (1989). For nuclear/cytosolic fractionation, confluent cell monolayers were scraped and lysed using a buffer containing 10 mM HEPES, 10 mM KCl, 0.1 mM EDTA, 0.1 mM EGTA, 2 mM DTT, 1% (v/v) NP-40 and complete protease inhibitor tablets (CPIs, Roche), diluted to manufacturer's instructions. Cell lysates were incubated on ice for 10 min and NP-40 added to a final concentration of 1% (v/v). Lysates were vortexed for 10 secs and centrifuged for 30 secs at 4° C., 12000 g. The supernatants were retained as the cytosolic protein extracts. The pellets were resuspended in buffer containing 10 mM HEPES, 10 mM KCl, 0.1 mM EDTA, 0.1 mM EGTA, 2 mM DTT, 400 mM NaCl, 1% NP-40 (v/v) and CPIs. Samples were shaken vigorously for 15 min in an ice bath. The nuclear protein extracts were obtained in the supernatant following a 5 min centrifugation at 4° C., 12000 g.
(§3) Sense and antisense strands (175 nmole/ml each) were incubated in annealing buffer (10 mM Tris-HCl pH7.5, 100 mM NaCl, 1 mM EDTA) for 10 min at 65° C., and allowed to cool at room temperature for 2 h. 3.5 pmole double-stranded oligonucleotides were end-labelled with 0.37 MBq ^32P(γATP) by incubating for 30 min at 37° C. with T4 polynucleotide kinase. Labelled oligonucleotides were recovered by centrifugation at 3000 rpm for 2 min through MicroSpin G-25 or G-50 sephadex columns (Amersham Biosciences).
(§4) 3-5 μg protein extracts were incubated on ice for 1 h with non-radiolabelled non-specific oligonucleotide (poly(dI-dC) or Oct-1) in a binding buffer (20% (v/V) glycerol, 5 mM MgCl2, 2 mM EDTA, 50 mM Tris-HCl pH7.5, 250 mM NaCl, 2 mM DTT), followed by a 45 min incubation with 0.035 pmole ^32P(γ(ATP)-end labelled oligonucleotide probes:
(§5) Oct-1 or SP-1 consensus sequences were used as a controls for a NF-κB-specific effect. The resulting protein/DNA complexes were separated in a 4% acrylamide gel, the gel dried under vacuum at 80° C. and exposed to X-ray film. For supershift analysis, samples were incubated with 2 μg antibodies for 30 min on ice prior to incubation with oligonucleotides. Non-radio-labelled oligonucleotides were used at 100-fold molar excess for specific and non-specific competition for DNA binding. Reagents for EMSA were obtained from Promega Life Sciences, Delta House, Chilworth Research Centre, Southampton SO16 7NS, United Kingdom.
Background: In EMSA bound probe runs differently from free probe, usually more slowly.

The target in assay [2] is T1, NF-κB. Briefly: EMSA of NF-κB DNA binding in nuclear extracts of treated myometrial cells. Type of assay: cell-based. Particulars: for IL-1β-induced NF-κB DNA binding (EMSA): myometrial cells, treated 2 h, then IL-1β 15 min. The protocol:
(§6) Myometrial tissue was collected at term from the upper margin of uterine incision at the time of lower segment caesarean section either prior to the onset of labour (L−) or […] (L+). L+ samples were collected by Dr Mark Johnson and Dr S Soorrana at Chelsea & Westminster Hospital. Myometrial tissue was dissected, rinsed in PBS, and digested in serum-free DMEM containing 15 mg/ml collagenase 1A (Sigma), 15 mg/ml collagenase X, and 50 mg/ml bovine serum albumin for 45 min at 37° C. The cell suspension was filtered through a cell strainer, centrifuged at 400 g for 5 min, and the pellet re-suspended and plated out in DMEM, 10% FCS (Helena BioScience), 1% L-glutainine, 1% penicillin-streptomycin. Cells were used between passage numbers 1-4.
as §2, §3, §4, §5

Assay [3] concerns NF-κB. Kind of assay: NF-κB-dependent luciferase reporter (κB.BG.Luc) in amnion cells. The format is cell-based, human. Particulars: L− or L+ amnion cells, treated 2 h, IL-1β 1 ng/ml 6 h. The protocol: . Values are normalised for b-gal reporter activity.
as §1
pGL3.6κB.BG.luc was the reporter construct used to assess NF-κB-mediated transcription, while the mutant pGL3.6κBmut.luc and empty pGL3.BG.luc were used as controls (Schwarzer et al., 1998).
pGL3.6κB.BG.luc: a NF-κB-dependent reporter construct with 6 copies of the NF-κB binding site. It contains two tandem repeats of the sequence 5′-GGG GAC TTT C CC TGGGGACTTTCCCTGGGGACTTTCCC-3′, which contains three copies of the decameric NF-κB binding site (underlined) upstream of a minimal β-globin promoter driving a luciferase gene.
(§7) Cells were co-transfected with the renilla vector pRL-CMV or β-galactosidase vector pCH110 as internal controls for transfection efficiencies.
In general terms: In a reporter assay the amount or activity of a reporter protein is the signal.

The test system of assay [4] is NF-κB. Briefly: NF-κB-dependent luciferase reporter (κB.BG.Luc) in myometrial cells. Type of assay: cell-based, human. Particulars: for IL-1β-induced NF-κB transcriptional activity (κB.BG.Luc reporter): treated 2 h, IL-1β 1 ng/ml 6 h. On the procedure:
Myometrial cells were transiently transfected with the NFκB-dependent reporter construct κB.BG.Luc, treated with 15dPGJ2 or vehicle for 2 h, ±IL-1β (1 ng/ml) for 6 h. […] Values are normalised for b-gal reporter activity. (NS=nonstimulated).
Myometrial cells were transfected with […] κB.BG.Luc reporter and 200 ng PPAR-γ expression vector and treated with 15d-PGJ2 for 2 h followed by IL-1β (1 ng/ml) for 6 h. Values are normalised for β-galactosidase reporter activity. (NS=nonstimulated).
as §6
pGL3.6κB.BG.luc: a NF-κB-dependent reporter construct with 6 copies of the NF-κB binding site.
as §7

The structures appear in SMILES notation. Entries after “also recorded” stand apart in the source; their conditions may differ.

T1 sequence (Q04206 whole entry): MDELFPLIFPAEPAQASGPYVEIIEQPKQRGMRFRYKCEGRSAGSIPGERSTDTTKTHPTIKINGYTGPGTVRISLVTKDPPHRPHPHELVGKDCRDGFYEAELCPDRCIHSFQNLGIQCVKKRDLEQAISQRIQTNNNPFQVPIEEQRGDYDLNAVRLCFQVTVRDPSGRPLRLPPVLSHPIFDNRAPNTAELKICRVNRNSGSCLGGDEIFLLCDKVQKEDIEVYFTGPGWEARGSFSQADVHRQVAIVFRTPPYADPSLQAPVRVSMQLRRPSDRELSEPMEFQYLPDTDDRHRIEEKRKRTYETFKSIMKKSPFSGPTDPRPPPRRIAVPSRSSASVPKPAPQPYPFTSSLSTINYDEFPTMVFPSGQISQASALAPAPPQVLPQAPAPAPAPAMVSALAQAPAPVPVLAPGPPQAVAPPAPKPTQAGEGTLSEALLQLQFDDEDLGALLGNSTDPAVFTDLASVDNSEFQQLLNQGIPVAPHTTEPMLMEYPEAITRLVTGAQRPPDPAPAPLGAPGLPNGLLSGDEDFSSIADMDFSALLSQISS
T1 sequence (P19838 1-433 limits assumed): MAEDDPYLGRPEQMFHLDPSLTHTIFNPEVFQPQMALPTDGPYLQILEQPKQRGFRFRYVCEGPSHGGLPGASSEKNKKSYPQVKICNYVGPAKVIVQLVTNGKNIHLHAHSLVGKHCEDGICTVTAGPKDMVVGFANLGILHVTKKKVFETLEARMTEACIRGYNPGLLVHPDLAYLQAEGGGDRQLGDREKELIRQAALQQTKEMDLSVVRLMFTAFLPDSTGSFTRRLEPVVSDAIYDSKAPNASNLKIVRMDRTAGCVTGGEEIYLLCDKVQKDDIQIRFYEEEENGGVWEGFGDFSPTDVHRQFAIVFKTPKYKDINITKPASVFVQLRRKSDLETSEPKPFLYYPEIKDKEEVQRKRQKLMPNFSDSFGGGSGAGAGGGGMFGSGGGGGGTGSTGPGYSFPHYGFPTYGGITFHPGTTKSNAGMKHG

`CCCCCC=CC=C1C(=O)C=C[C@@H]1CC=CCCCC(=O)O` [15d-PGJ2, 15-deoxy-Δ^12,14prostaglandin J2]: the “IL-1β-induced NF-κB DNA binding (EMSA)” value on NF-κB [1] is “inhibited IL1-β-induced NF-κB DNA binding in a dose-dependent manner”; on NF-κB [1] (listed as 15dPGJ2) it was “inhibition”; at NF-κB [2] it was “inhibited IL1-β-induced NF-κB DNA binding in a dose-dependent manner”; on NF-κB [2] (listed as 15dPGJ2) it was “inhibition”. Besides, on NF-κB [2] (myometrial and amnion cells), the “Protein binding to a consensus Oct-1 or Sp-1 probe (control)” value is “unaffected”. Also, the “IL-1β-induced NF-κB transcriptional activity (κB.BG.Luc reporter)” value in the assay on NF-κB [3] is “inhibited”; in the assay on NF-κB [4], “reducing reporter activity to basal levels; also recorded: inhibited”; with NF-κB [4] (listed as 15dPGJ2) it was “inhibition”. Further, in the assay with NF-κB [4] (200 ng PPAR-γ expression vector), the “Effect of PPARγ overexpression on 15d-PGJ2 inhibition of NF-κB transcriptional activity” value is recorded as “does not potentiate”.

`CCCCC[C@H](O)/C=C/[C@H]1C=CC(=O)[C@@H]1CCCCCCC(=O)O` [PGA1, prostaglandin A1]: the “IL-1β-induced NF-κB DNA binding (EMSA)” value on NF-κB [1] and on NF-κB [2] was “inhibition” in each case. Also, the “IL-1β-induced NF-κB transcriptional activity (κB.BG.Luc reporter)” value is given as “inhibited” with NF-κB [3] and “reduced to basal levels” in the assay with NF-κB [4].
